The target of test [1] is T1, human FLT3 protein (FLT3 (WT)) (Homo sapiens, UniProt P36888).
T1 construct: human FLT3 protein (intracellular region, 564 to 993 aa); GST; purchased Carna Biosciences; host or cells: baculovirus expression system
T1 sequence (P36888 564-993): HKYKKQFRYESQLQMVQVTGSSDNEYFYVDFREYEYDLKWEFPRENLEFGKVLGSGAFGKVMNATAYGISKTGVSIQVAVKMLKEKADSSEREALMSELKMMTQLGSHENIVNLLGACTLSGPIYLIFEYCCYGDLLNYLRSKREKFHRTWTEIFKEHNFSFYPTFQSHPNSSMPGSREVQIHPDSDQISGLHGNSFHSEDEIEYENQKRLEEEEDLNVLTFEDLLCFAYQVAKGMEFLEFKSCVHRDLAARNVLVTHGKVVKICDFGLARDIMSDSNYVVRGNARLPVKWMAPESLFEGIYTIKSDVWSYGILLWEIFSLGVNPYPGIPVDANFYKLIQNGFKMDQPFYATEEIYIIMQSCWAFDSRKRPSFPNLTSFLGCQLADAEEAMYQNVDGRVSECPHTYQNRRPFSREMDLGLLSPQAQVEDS
Briefly: FLT3 inhibition test (FLT3 enzyme inhibition, time-resolved fluorescence of substrate peptide phosphorylation). Format: biochemical. Particulars: GST-fused human FLT3 (564 to 993 aa), ATP 50 μM; read-out: FLT3 (WT) enzyme inhibition activity. The essentials:
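Wild-type human FLT3 (1.2 μg) pre-incubated with compound 15 min at 25° C in 100 mM HEPES pH 7.5, 10 mM MgCl2, 25 mM NaCl, 1 mM DTT. Reaction started with substrate peptide and ATP (final 50 μM), run 30 min at 25° C; phosphorylation read by time-resolved fluorescence.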

The next test concerns MV4-11 cells. Briefly: Leukemia cell proliferation inhibition test (ATPlite), MV4-11. Format: cell-based. The settings on record: Homo sapiens, MV4-11, 72 h, MV4-11, 72 hours culture, ATPlite; GI50 per method; read-out: MV4-11 cell proliferation inhibition effect. The essentials: (§1)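 Molm-13 or MV4-11 cells in RPMI with 10% FBS and pen/strep, seeded at 10,000 cells per well, were exposed to serially diluted compound for 72 hours at 37° C, 5% CO2. Total cellular ATP was read by luciferase luminescence. GI50 came from sigmoid fits against the 0.1% DMSO control, in duplicate.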
Background: ATP-based viability assays read luminescence as a measure of living cells.

The next test concerns Molm-13 cells. Briefly: Leukemia cell proliferation inhibition test (ATPlite), Molm-13. Format: cell-based. The settings on record: Homo sapiens, MOLM-13, 72 h, Molm-13, 72 hours culture, ATPlite; GI50 per method; read-out: MOLM13 cell proliferation inhibition effect. The method, boiled down: as §1

pIC50: −log10 of the molar value.

Consider `CCCNc1nc(Nc2ccc(C#N)cc2)nc(C)c1C#CCCCNC(=O)[C@H](C)N(C)C(=O)/C=C/CN(C)C` [Compound 19-1, (S,E)-N-(1-((5-(2-((4-cyanophenyl)amino)-4-methyl-6-(propylamino)pyrimidin-5-yl)-4-pentyn-1-yl)amino)-1-oxopropan-2-yl)-4-(dimethylamino)-N-methyl-2-butenamide], for which the pIC50 in test [1] was more than 8.00; in the test on MV4-11 cells it was 6.00 to 7.00; with Molm-13 cells, 6.00 to 7.00.
Regarding `C[C@@H](C(=O)NCCCC#Cc1cnc(Nc2ccc(C#N)cc2)nc1-c1ccccc1)N(C)C(=O)/C=C/CN(C)C` [Compound 20-1, (S,E)-N-(1-((5-(2-((4-cyanophenyl)amino)-4-phenylpyrimidin-5-yl)-4-pentyn-1-yl)amino)-1-oxopropan-2-yl)-4-(dimethylamino)-N-methyl-2-butenamide], the pIC50 is 7.00 to 8.00 in test [1], more than 8.00 with MV4-11 cells and more than 8.00 in the test with Molm-13 cells.
Turning to `C[C@@H](C(=O)NCCCC#Cc1cnc(Nc2ccc(C#N)cc2)nc1-n1cccn1)N(C)C(=O)/C=C/CN(C)C` [Compound 20-2, (S,E)-N-(1-((5-(2-((4-cyanophenyl)amino)-4-(1H-pyrazol-1-yl)pyrimidin-5-yl)-4-pentyn-1-yl)amino)-1-oxopropan-2-yl)-4-(dimethylamino)-N-methyl-2-butenamide], the pIC50 (in test [1]; in the test on MV4-11 cells; in the test on Molm-13 cells) was 7.00 to 8.00 each time.
In the case of `C[C@@H](C(=O)NCCCC#Cc1cnc(Nc2ccc(C#N)cc2)nc1-n1nccn1)N(C)C(=O)/C=C/CN(C)C` [Compound 20-3], the pIC50 in test [1] was 7.00 to 8.00; with MV4-11 cells it was more than 8.00; with Molm-13 cells, more than 8.00.
As to `C[C@@H](C(=O)NCCCC#Cc1cnc(Nc2ccc(C#N)cc2)nc1-n1cncn1)N(C)C(=O)/C=C/CN(C)C` [Compound 20-4], the pIC50 in test [1] was more than 8.00; in the test on MV4-11 cells, 7.00 to 8.00; in the test on Molm-13 cells it was 7.00 to 8.00.
Consider `CNc1nc(Nc2cccc(C#N)c2)ncc1C#C[C@@H]1CCC[C@H](NC(=O)[C@H](C)N(C)C(=O)/C=C/CN(C)C)C1` [Compound 21-1, (E)-N—((S)-1-(((1S,3R)-3-((2-((3-cyanophenyl)amino)-4-(methylamino)pyrimidin-5-yl)ethynyl)cyclohexyl)amino)-1-oxopropan-2-yl)-4-(dimethylamino)-N-methyl-2-butenamide], for which the pIC50 (in test [1]; in the test on MV4-11 cells; with Molm-13 cells) was more than 8.00 in each case.
Turning to `C[C@@H](C(=O)NCCCC#Cc1cnc(Nc2ccc(F)c(F)c2)nc1NC1CC1)N(C)C(=O)/C=C/CN(C)C` [Compound 21-2], the pIC50 (in test [1]; with MV4-11 cells; in the test on Molm-13 cells) was more than 8.00 each time.
Regarding `CCCNc1nc(Nc2ccc(C#N)c(C)c2)ncc1C#CCCCNC(=O)[C@H](C)N(C)C(=O)/C=C/CN(C)C` [Compound 21-3], the pIC50 (in test [1]; with MV4-11 cells; with Molm-13 cells) was more than 8.00 each time.
As for `C[C@@H](C(=O)NCCCC#Cc1cnc(Nc2cccc(F)c2)nc1NCC1CC1)N(C)C(=O)/C=C/CN(C)C` [Compound 21-4], the pIC50 in test [1] is more than 8.00; with MV4-11 cells, more than 8.00; with Molm-13 cells, 7.00 to 8.00.
Turning to `CCCNc1nc(Nc2cccc3c2cnn3C)ncc1C#CCCCNC(=O)[C@H](C)N(C)C(=O)/C=C/CN(C)C` [Compound 21-5], the pIC50 in test [1] was 6.00 to 7.00; in the test with MV4-11 cells, less than 6.00; with Molm-13 cells, 6.00 to 7.00.
Regarding `CCCNc1nc(Nc2ccc3c(cnn3C)c2)ncc1C#CCCCNC(=O)[C@H](C)N(C)C(=O)/C=C/CN(C)C` [Compound 21-6], the pIC50 (in test [1]; in the test on MV4-11 cells; in the test with Molm-13 cells) was more than 8.00 in each case.
`CCCNc1nc(Nc2ccc3nn(C)cc3c2)ncc1C#CCCCNC(=O)[C@H](C)N(C)C(=O)/C=C/CN(C)C` [Compound 21-7]: the pIC50 (in test [1]; in the test with MV4-11 cells; in the test on Molm-13 cells) was more than 8.00 throughout.
Consider `CCCNc1nc(Nc2cnc(N3CCOCC3)c(F)c2)ncc1C#CCCCNC(=O)[C@H](C)N(C)C(=O)/C=C/CN(C)C` [Compound 21-8], for which the pIC50 (in test [1]; with MV4-11 cells; in the test on Molm-13 cells) was 7.00 to 8.00 each time.
Take `CCCNc1nc(Nc2ccc3cnn(C)c3c2)ncc1C#CCCCNC(=O)[C@H](C)N(C)C(=O)/C=C/CN(C)C` [Compound 21-9]: the pIC50 (in test [1]; in the test on MV4-11 cells; with Molm-13 cells) was more than 8.00 throughout.
Take `CCCNc1nc(Nc2ccc3cn(C)nc3c2)ncc1C#CCCCNC(=O)[C@H](C)N(C)C(=O)/C=C/CN(C)C` [Compound 21-10]: the pIC50 in test [1] was more than 8.00; with MV4-11 cells it was 7.00 to 8.00; in the test on Molm-13 cells it was 7.00 to 8.00.
As to `C[C@@H](C(=O)NCCCC#Cc1cnc(Nc2ccc(C#N)cc2)nc1NCC1CC1)N(C)C(=O)/C=C/CN(C)C` [Compound 21-12], the pIC50 (in test [1]; in the test with MV4-11 cells; in the test with Molm-13 cells) was more than 8.00 in each case.
As for `CCCOc1nc(Nc2ccc(C#N)cc2)ncc1C#C[C@@H]1CCC[C@H](NC(=O)[C@H](C)N(C)C(=O)/C=C/CN(C)C)C1` [Compound 21-13], the pIC50 (in test [1]; in the test on MV4-11 cells; in the test on Molm-13 cells) was more than 8.00 in each case.
`CCCNc1nc(Nc2cnc(NC)c(F)c2)ncc1C#CCCCNC(=O)[C@H](C)N(C)C(=O)/C=C/CN(C)C` [Compound 21-14]: the results for the pIC50 (in test [1]; in the test with MV4-11 cells; with Molm-13 cells) were more than 8.00, 7.00 to 8.00 and 7.00 to 8.00, respectively.
With `CCCNc1nc(Nc2ccc3scnc3c2)ncc1C#CCCCNC(=O)[C@H](C)N(C)C(=O)/C=C/CN(C)C` [Compound 21-15], the pIC50 in test [1] was more than 8.00; in the test with MV4-11 cells, more than 8.00; in the test on Molm-13 cells, 7.00 to 8.00.
For the molecule `CCCNc1nc(Nc2cnc3ccc(OC)cc3c2)ncc1C#CCCCNC(=O)[C@H](C)N(C)C(=O)/C=C/CN(C)C` [Compound 21-16], the pIC50 (in test [1]; with MV4-11 cells; in the test with Molm-13 cells) was more than 8.00 throughout.
Consider `CCCNc1nc(Nc2ccc(C)nc2)ncc1C#CCCCNC(=O)[C@H](C)N(C)C(=O)/C=C/CN(C)C` [Compound 21-17], for which the pIC50 in test [1] is more than 8.00; in the test on MV4-11 cells, more than 8.00; in the test with Molm-13 cells, 7.00 to 8.00.
Take `CCCNc1nc(Nc2cnc(C)c(C)c2)ncc1C#CCCCNC(=O)[C@H](C)N(C)C(=O)/C=C/CN(C)C` [Compound 21-18]: the pIC50 (in test [1]; with MV4-11 cells; with Molm-13 cells) was 7.00 to 8.00 each time.
In the case of `CCOc1nc(Nc2cccc(F)c2)ncc1C#C[C@@H]1CCC[C@H](NC(=O)[C@H](C)N(C)C(=O)/C=C/CN(C)C)C1` [Compound 21-19], the pIC50 (in test [1]; with MV4-11 cells; with Molm-13 cells) was more than 8.00 each time.
For `CCOc1nc(Nc2ccc(C#N)cc2)ncc1C#C[C@@H]1CCC[C@H](NC(=O)[C@H](C)N(C)C(=O)/C=C/CN(C)C)C1` [Compound 21-20], the pIC50 (in test [1]; with MV4-11 cells; with Molm-13 cells) was more than 8.00 throughout.
Consider `CC(C)Oc1nc(Nc2cccc(F)c2)ncc1C#C[C@@H]1CCC[C@H](NC(=O)[C@H](C)N(C)C(=O)/C=C/CN(C)C)C1` [Compound 21-21], for which the pIC50 (in test [1]; in the test with MV4-11 cells; in the test on Molm-13 cells) was more than 8.00 throughout.

The values above are taken from patent US9145415B2, “Nitrogen-containing heterocyclic compound or salt thereof” (FUJIFILM Corporation, priority 2012, dated 2015).
